Test results published in PMC7413254 (Nature Communications, 2020).
Where two headings read alike, the source gives them in different places.

What was measured:
Details in all cases: trans-stimulation, solute 2 mM
PfCRT^Ecu1110 = PfCRT^Ecu1110 (Plasmodium falciparum, UniProt Q9N623, A220S/I356L/K76T/N326D); assay: cell-based; format: cell-based
Method in brief: (§1)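 Transport measured in Xenopus oocytes expressing the transporters, 1.5 h at 27.5 °C in ND96 pH 5.5 unless noted. For trans-stimulation, VF-6 injected in 25 nL ND96 at pH 5.0–7.0 or Na^+-free (choline) buffer; intracellular levels based on ~400 nL oocyte volume. Ten oocytes per treatment, ≥4 experiments.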

PfNT1 = target: T1, PfNT1 (Plasmodium falciparum, UniProt Q8IDM6); assay: cell-based; format: cell-based
T1 construct: expressed in transfected cells; host or cells: Xenopus laevis oocytes (stage V-VI), cRNA-injected
Method in brief: as §1

PfCRT^Dd2 = PfCRT^Dd2 (Plasmodium falciparum, UniProt Q9N623, A220S/I356T/K76T/M74I/N326S/N75E/Q271E/R371I); assay: cell-based; format: cell-based
Method in brief: as §1

PfCRT^3D7 = PfCRT^3D7 (Plasmodium falciparum, UniProt Q8IBZ9); assay: cell-based; format: cell-based
Method in brief: as §1

non-expressing oocytes = format: cell-based, Xenopus laevis
Method in brief: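 Oocytes (ten per treatment, ≥4 independent frogs/days) were preloaded by injecting VF-6 in 25 nL ND96 at pH 5.0, 5.5, 6.0 or 7.0, or Na^+-free choline buffer, then uptake run 1.5 h, 27.5 °C, ND96 pH 5.5 by default. Internal concentrations assumed ~400 nL oocyte volume.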

T1 sequence (Q8IDM6 whole entry): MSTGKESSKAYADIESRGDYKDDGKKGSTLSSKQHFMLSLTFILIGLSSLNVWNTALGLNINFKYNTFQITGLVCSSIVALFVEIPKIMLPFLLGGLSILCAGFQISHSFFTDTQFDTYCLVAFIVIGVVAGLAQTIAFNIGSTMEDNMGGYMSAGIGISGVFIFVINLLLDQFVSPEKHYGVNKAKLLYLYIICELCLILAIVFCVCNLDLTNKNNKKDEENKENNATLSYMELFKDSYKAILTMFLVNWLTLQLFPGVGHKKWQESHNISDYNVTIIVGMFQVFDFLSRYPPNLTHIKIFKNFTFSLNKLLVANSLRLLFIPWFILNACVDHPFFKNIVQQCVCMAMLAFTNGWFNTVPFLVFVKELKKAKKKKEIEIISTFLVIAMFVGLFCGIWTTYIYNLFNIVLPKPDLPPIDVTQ
Sequence of PfCRT^3D7 (Q8IBZ9 59-398): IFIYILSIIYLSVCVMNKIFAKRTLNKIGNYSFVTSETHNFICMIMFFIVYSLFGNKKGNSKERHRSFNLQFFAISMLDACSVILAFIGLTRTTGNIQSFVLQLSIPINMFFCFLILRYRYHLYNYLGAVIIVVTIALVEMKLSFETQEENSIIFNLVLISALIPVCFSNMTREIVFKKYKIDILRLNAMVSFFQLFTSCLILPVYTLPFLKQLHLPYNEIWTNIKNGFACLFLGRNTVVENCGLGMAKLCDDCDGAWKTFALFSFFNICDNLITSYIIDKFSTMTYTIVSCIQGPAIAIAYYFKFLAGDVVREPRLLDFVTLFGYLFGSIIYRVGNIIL
Sequence of PfCRT^Dd2 (Q9N623 whole entry A220S/I356T/K76T/M74I/N326S/N75E/Q271E/R371I): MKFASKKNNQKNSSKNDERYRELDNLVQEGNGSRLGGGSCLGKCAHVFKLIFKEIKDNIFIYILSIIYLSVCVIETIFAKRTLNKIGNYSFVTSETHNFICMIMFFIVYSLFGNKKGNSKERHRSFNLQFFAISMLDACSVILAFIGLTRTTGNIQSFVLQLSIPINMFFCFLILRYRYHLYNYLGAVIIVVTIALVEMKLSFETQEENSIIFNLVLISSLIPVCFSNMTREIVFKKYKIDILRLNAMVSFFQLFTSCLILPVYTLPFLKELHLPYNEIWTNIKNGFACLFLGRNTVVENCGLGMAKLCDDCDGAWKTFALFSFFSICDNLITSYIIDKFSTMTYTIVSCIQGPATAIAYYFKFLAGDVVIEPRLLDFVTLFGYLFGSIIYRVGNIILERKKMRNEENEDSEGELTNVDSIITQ
Sequence of PfCRT^Ecu1110 (Q9N623 whole entry A220S/I356L/K76T/N326D): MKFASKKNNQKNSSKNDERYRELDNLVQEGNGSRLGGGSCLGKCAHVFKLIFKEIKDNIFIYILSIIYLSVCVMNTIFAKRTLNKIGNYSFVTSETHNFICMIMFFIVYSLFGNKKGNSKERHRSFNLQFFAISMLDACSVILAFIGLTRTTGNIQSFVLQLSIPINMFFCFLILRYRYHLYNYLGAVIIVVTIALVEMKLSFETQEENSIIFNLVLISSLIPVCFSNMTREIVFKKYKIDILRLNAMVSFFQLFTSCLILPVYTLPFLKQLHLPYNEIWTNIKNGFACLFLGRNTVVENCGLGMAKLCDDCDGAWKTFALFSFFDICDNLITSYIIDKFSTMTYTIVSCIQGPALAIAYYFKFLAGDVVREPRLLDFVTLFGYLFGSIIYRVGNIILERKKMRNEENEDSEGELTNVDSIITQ

Row | Substance | [3H]CQ transport, PfCRTEcu1110 (PfCRT^Ecu1110; Experiment 1) [% PfCRTDd2 control] | [3H]CQ transport, PfCRTEcu1110 (PfCRT^Ecu1110; Experiment 2) [% PfCRTDd2 control] | [3H]CQ transport, PfCRTEcu1110 (PfCRT^Ecu1110; Experiment 3) [% PfCRTDd2 control] | [3H]CQ transport, PfCRTEcu1110 (PfCRT^Ecu1110; Experiment 4) [% PfCRTDd2 control] | [3H]CQ transport, PfNT1 (PfNT1; Experiment 1) [% PfCRTDd2 control] | [3H]CQ transport, PfNT1 (PfNT1; Experiment 2) [% PfCRTDd2 control] | [3H]CQ transport, PfNT1 (PfNT1; Experiment 3) [% PfCRTDd2 control] | [3H]CQ transport, PfNT1 (PfNT1; Experiment 4) [% PfCRTDd2 control] | [3H]CQ transport, PfCRTDd2 (PfCRT^Dd2; Experiment 1) [% PfCRTDd2 control] | [3H]CQ transport, PfCRTDd2 (PfCRT^Dd2; Experiment 2) [% PfCRTDd2 control] | [3H]CQ transport, PfCRTDd2 (PfCRT^Dd2; Experiment 3) [% PfCRTDd2 control] | [3H]CQ transport, PfCRTDd2 (PfCRT^Dd2; Experiment 4) [% PfCRTDd2 control] | [3H]CQ transport, PfCRT3D7 (PfCRT^3D7; Experiment 1) [% PfCRTDd2 control] | [3H]CQ transport, PfCRT3D7 (PfCRT^3D7; Experiment 2) [% PfCRTDd2 control] | [3H]CQ transport, PfCRT3D7 (PfCRT^3D7; Experiment 3) [% PfCRTDd2 control] | [3H]CQ transport, PfCRT3D7 (PfCRT^3D7; Experiment 4) [% PfCRTDd2 control] | [3H]CQ transport, non-expressing oocytes (non-expressing oocytes; Experiment 1) [% PfCRTDd2 control] | [3H]CQ transport, non-expressing oocytes (non-expressing oocytes; Experiment 2) [% PfCRTDd2 control] | [3H]CQ transport, non-expressing oocytes (non-expressing oocytes; Experiment 3) [% PfCRTDd2 control] | [3H]CQ transport, non-expressing oocytes (non-expressing oocytes; Experiment 4) [% PfCRTDd2 control]
1 | DPVN [VF-6-derived peptide] | 32.63 | 30.52 | 37.36 | 30.52 | 3.52 | 3.38 | 3.26 | 3.33 | 100.43 | 99.77 | 98.92 | 101.43 | 12.64 | 13.46 | 12.14 | 11.36 | 2.53 | 2.64 | 2.41 | 2.56
2 | VDPVN [VF-6-derived peptide] | 40.67 | 44.84 | 45.43 | 46.24 | 2.85 | 2.88 | 2.95 | 2.89 | 120.53 | 112.56 | 120.67 | 119.43 | 18.56 | 19.52 | 15.43 | 18.35 | 2.84 | 2.91 | 2.78 | 2.94
3 | DPVNF [VF-6-derived peptide] | 45.52 | 43.68 | 37.35 | 43.35 | 3.85 | 3.98 | 3.94 | 3.99 | 116.36 | 119.52 | 110.63 | 125.53 | 17.63 | 14.86 | 18.47 | 17.33 | 2.53 | 2.61 | 2.41 | 2.43
